Each structure is given as a SMILES string.

The assay has as its system Bifidobacterium longum BL999. The experiment in a line: Pre-screening of single ingredients as protective agent: viability loss after spray-drying, storage and reconstitution. The class given is cell-based. The following applies: for protective effect during drying: individual ingredient 18.2 wt % with maltodextrin DE12 and sodium ascorbate, compared to the reference; for storage stability / losses during storage and reconstitution: storage at T=37° C.; for storage stability / losses during storage and reconstitution / viability loss after 8 weeks: aw=0.22, after spray-drying; for viability loss after 8 weeks: 8 weeks storage at T=37° C. As for the experimental part:
A fermentation medium suitable for the growth of Bifidobacterium longum BL999 was inoculated with 2% frozen-thawed bacteria.
The centrifuged biomass was then conditioned according to the following process. […] Then 300 g of centrifuged biomass were filled into a beaker, which was placed in an ice water bath. The total solids content of the biomass was measured and the protective agent solution was added at a ratio of protective agents to biomass of 55/45 (based on dry weight). The mixture was gently agitated in the ice water bath for one hour. The pH was then adjusted to pH7.
The conditioned concentrate was then spray-dried on a lab-scale spray-dryer (Buechi, B-290, Flawil, Switzerland). The air temperature was 140° C. and the tower temperature was adjusted by the concentrate flow to T=70° C. During drying, the beaker containing the concentrate was cooled in an ice water bath.
In a first round of trials, 38 ingredients were selected as potential protective agents. The effect of those ingredients on the stability of Bifidobacterium longum BL999 was tested by spray-drying biomass with a protective agent comprising maltodextrin DE12, sodium ascorbate and one single additional ingredient from the list of 38 compounds to be screened in the following concentrations:
This control was used as a reference to evaluate the effect of the protective agents on the stability of Bifidobacterium longum BL999 during spray-drying, storage and reconstitution.
The 38 culture powders and the control were prepared as described above, the conditioning being carried out with one of the 38 protective agents.
The cell concentration of B. longum in the powder was detected by classical plating methods. Such classical plating methods are summarized in the microbiology book: James Monroe Jay, Martin J. Loessner, David A. Golden. […] Modern food microbiology. 7th edition, Springer Science, New York, N.Y. The cells were counted in the concentrate before drying, in the culture powder directly after drying and after 2, 3, 4, 6, 8 and/or 12 weeks storage in a climatic chamber at T=37° C. above saturated potassium acetate solution (aw=0.22). The cell counts after drying and after storage were determined after reconstitution of the powder with a reconstitution medium, as known by the person skilled in the art, who is well aware of the above-mentioned plating methods.
The following formulae were used for the evaluation of the data:
where X0 is the number of micro-organisms at time t=0 and Xt the number of microorganisms at time t. When the microbiological counts were measured in k replicates, x0 is the average number of micro-organisms at time t=0 and, xt is the average number of micro-organisms at time t, the average log loss at time t is given by:
The tested individual ingredients were selected among several groups of molecules: sugars, sugar alcohols, amino acids and proteins. All tested ingredients within a group were spray-dried on the same day and the reference was spray dried again with each group, also on the same day.

The mark [1] stands for this setting: individual ingredient 18.2 wt %.

As for `OCC(O)CO` [glycerol], the “protective effect during drying” value (spray-drying) is recorded as “light protective effect”. Besides, the “storage stability / losses during storage and reconstitution” value under setting [1] is given as “majority of the bacteria of this variant died already after two weeks storage”.
Consider `OC[C@@H](O)[C@@H](O)[C@H](O)[C@H](O)CO` [mannitol], for which the “viability loss after 8 weeks” value under setting [1] is recorded as “lowest”. Besides, under “spray-drying”, the “protective effect during drying” value is on record as “light protective effect”.
As for `O[C@H]1[C@H](O)[C@@H](O)[C@H](O)[C@@H](O)[C@H]1O` [myo-inositol], the “viability loss after 8 weeks” value under setting [1] was “lowest”.
Consider `O=C1O[C@H]([C@@H](O)CO)C([O-])=C1O.[Na+]` [sodium ascorbate], for which, for the setting “spray-drying”, the “protective effect during drying” value is “does not show significant effect on the bacterial survival during the drying process”.
For the compound `OC[C@@H](O)[C@@H](O[C@@H]1O[C@H](CO)[C@H](O)[C@H](O)[C@H]1O)[C@H](O)[C@@H](O)CO` [lactitol], the “viability loss after 8 weeks” value under setting [1] is “lowest”.
In the case of `NCCCC[C@H](N)C(=O)O` [lysine, L-lysine], the “storage stability / losses during storage and reconstitution” value under setting [1] was “lowest losses during storage and reconstitution”.
With `N[C@@H](CS)C(=O)O` [cysteine, L-cysteine], the “viability loss during drying” value (spray-drying, protective agent of maltodextrin DE12 68.2 wt %, sodium ascorbate 13.6 wt %, individual ingredient 18.2 wt %) is 0.2 log. For the same compound, under setting [1], the “storage stability / losses during storage and reconstitution” value was “lowest losses during storage and reconstitution”.
As to `OC[C@H]1O[C@@](CO)(O[C@H]2O[C@H](CO)[C@@H](O)[C@H](O)[C@H]2O)[C@@H](O)[C@@H]1O` [sucrose], under setting [1], the “storage stability / losses during storage and reconstitution” value is recorded as “most efficient ingredient”.
`OC[C@@H](O)[C@H](O)[C@@H](O)CO` [xylitol]: the “protective effect during drying” value (spray-drying) is reported as “light protective effect”.
`C[C@H](N)C(=O)O` [alanine, L-alanine]: the “storage stability / losses during storage and reconstitution” value under setting [1] was “lowest losses during storage and reconstitution”.
Take `OC[C@@H](O)[C@@H](O)[C@H](O)[C@@H](O)CO` [sorbitol]: the “viability loss after 8 weeks” value under setting [1] is given as “lowest”. Also, the “protective effect during drying” value (spray-drying) was “light protective effect”.
As for `N=C(N)NCCC[C@H](N)C(=O)O` [arginine, L-arginine], the “storage stability / losses during storage and reconstitution” value under setting [1] is “lowest losses during storage and reconstitution”.
